Reference: patent US20130345215A1, “PYRAZOLOPYRIMIDONE AND PYRAZOLOPYRIDONE INHIBITORS OF TANKYRASE” (Genentech, Inc., priority 2012, published 2013)

Test system: Wnt stimulated TCF transcriptional activity, HEK293-TS 112 TCF reporter cell line
Assay: Tankyrase 1 Assay (Example 119): Wnt3A-stimulated TOPbrite TCF luciferase reporter
Type: cell-based
Details: Compounds I-59 to I-144, procedure in Example 119 (0.5 ug/mL Wnt3A, 16 hours); read-out: TNKS1 (IC50)
Protocol: Inhibition of the Wnt stimulated TCF transcriptional activity by tankyrase inhibitors was determined utilizing a HEK293-TS 112 TCF reporter cell line. A Wnt-responsive luciferase reporter named TOPbrite was constructed by cloning the enhancer element of Super8xTOPFlash containing eight TCF/LEF binding sites into the pGL4.28 vector (Promega) upstream of the minimal promoter element, and selecting for hygromycin B resistance (50 μg/ml). Cells were seeded into 384-well plates in the presence of 0.5 ug/mL of Wnt3A at a density of 20,000 cells per well in 25 ul of F:12 DMEM media supplemented with 10% FBS and 2 mM Glutamax. Cells seeded without the addition of Wnt3A were used as background signal. Compounds of various concentrations were added to cells and incubated at 37 degrees with 5% CO2 for 16 hours. The assay was terminated with the addition of Promega Dual Glo kit per manufacturer's instructions. A ratio of TOPbrite Firefly Luciferase and SV40 Renillla Luciferase was calculated and the background from the neutral wells was subtracted yielding the final normalized measurement of TCF transcriptional activity. Compound IC50s were determined by four-parameter curve fitting using GeneData software.

Row | Compound | IC50
1 | Cn1ncc2c(=O)[nH]c(N3CCN(CC4CCOCC4)CC3)nc21 [Compound I-116, 1-methyl-6-[4-(tetrahydropyran-4-ylmethyl)piperazin-1-yl]-5H-pyrazolo[3 4-d]pyrimidin-4-one] | 112 nM
2 | Cn1ncc2c(=O)[nH]c(N3CCN(c4c(F)cc(OCC(O)CO)cc4F)CC3)nc21 (stereo not drawn) [Compound I-68, 6-[4-[4-(2 3-dihydroxypropoxy)-2 6-difluoro-phenyl]piperazin-1-yl]-1-methyl-5H-pyrazolo[3 4-d]pyrimidin-4-one] | 7 nM
3 | COCCOc1cc(F)c(N2CCN(c3nc4c(cnn4C4CCOCC4)c(=O)[nH]3)CC2)c(F)c1 [Compound I-123, 6-[4-[2 6-difluoro-4-(2-methoxyethoxy)phenyl]piperazin-1-yl]-1-tetrahydropyran-4-yl-5H-pyrazolo[3 4-d]pyrimidin-4-one] | 168 nM
4 | CC(O)c1cc(F)c(N2CCN(c3nc4c(cnn4C)c(=O)[nH]3)CC2)c(F)c1 (stereo not drawn) [Compound I-69, 6-[4-[2 6-difluoro-4-(1-hydroxyethyl)phenyl]piperazin-1-yl]-1-methyl-5H-pyrazolo[3 4-d]pyrimidin-4-one] | 7.8 nM
5 | Cn1ncc2c(=O)[nH]c(N3CCN(C4CCCCC4)CC3)nc21 [Compound I-118, 6-(4-cyclohexylpiperazin-1-yl)-1-methyl-5H-pyrazolo[3 4-d]pyrimidin-4-one] | 122 nM
6 | CC(C)[C@H](N)C(=O)OCCOc1cc(F)c(N2CCN(c3nc4c(cnn4C)c(=O)[nH]3)CC2)c(F)c1 [Compound I-61, 2-[3 5-difluoro-4-[4-(1-methyl-4-oxo-5H-pyrazolo[3 4-d]pyrimidin-6-yl)piperazin-1-yl]phenoxy]ethyl (2S)-2-amino-3-methyl-butanoate] | 4.2 nM
7 | COCCOc1cc(F)c(N2CCN(c3nc4c(cnn4CCO)c(=O)[nH]3)CC2)c(F)c1 [Compound I-94, 6-[4-[2 6-difluoro-4-(2-methoxyethoxy)phenyl]piperazin-1-yl]-1-(2-hydroxyethyl)-5H-pyrazolo[3 4-d]pyrimidin-4-one] | 264 nM
8 | COCCOc1cc(F)c(C2(O)CCN(c3nc4c(cnn4C)c(=O)[nH]3)CC2)c(F)c1 [Compound I-83, 6-[4-[2 6-difluoro-4-(2-methoxyethoxy)phenyl]-4-hydroxy-1-piperidyl]-1-methyl-5H-pyrazolo[3 4-d]pyrimidin-4-one] | 15.3 nM
9 | Cn1ncc2c(=O)[nH]c(N3CCN(c4c(F)cc(OCCOP(=O)(O)O)cc4F)CC3)nc21 [Compound I-75, 2-[3 5-difluoro-4-[4-(1-methyl-4-oxo-5H-pyrazolo[3 4-d]pyrimidin-6-yl)piperazin-1-yl]phenoxy]ethyl dihydrogen phosphate] | 9.6 nM
10 | Cn1ncc2c(=O)[nH]c(N3CCN(c4c(F)cc(OC5CC[S+]([O-])CC5)cc4F)CC3)nc21 (stereo not drawn) [Compound I-87, 6-[4-[2 6-difluoro-4-(1-oxothian-4-yl)oxy-phenyl]piperazin-1-yl]-1-methyl-5H-pyrazolo[3 4-d]pyrimidin-4-one] | 18.7 nM
11 | 6-[4-(3-fluorophenyl)-1- piperidyl]-1-methyl-5H- pyrazolo[3 4-d]pyrimidin- 4-one [Compound I-84] | 17 nM
12 | Cn1ncc2c(=O)[nH]c(-c3ccc(S(=O)(=O)C4CCCCC4)cc3)nc21 [Compound I-125, 6-(4-cyclohexylsulfonylphenyl)-1-methyl-5H-pyrazolo[3 4-d]pyrimidin-4-one] | 178 nM
13 | C[C@H](N)C(=O)OCCOc1cc(F)c(N2CCN(c3nc4c(cnn4C)c(=O)[nH]3)CC2)c(F)c1 [Compound I-59, 2-[3 5-difluoro-4-[4-(1-methyl-4-oxo-5H-pyrazolo[3 4-d]pyrimidin-6-yl)piperazin-1-yl]phenoxy]ethyl (2S)-2-aminopropanoate] | 3.7 nM
14 | Cn1ncc2c(=O)[nH]c(N3CCN(c4c(F)cc(OC5CCS(=O)(=O)CC5)cc4F)CC3)nc21 [Compound I-70, 6-[4-[4-(1 1-dioxothian-4-yl)oxy-2 6-difluoro-phenyl]piperazin-1-yl]-1-methyl-5H-pyrazolo[3 4-d]pyrimidin-4-one] | 7.9 nM
15 | Cn1ncc2c(=O)[nH]c(N3CCC(O)(c4ccc(F)cc4)CC3)nc21 [Compound I-93, 6-[4-(4-fluorophenyl)-4-hydroxy-1-piperidyl]-1-methyl-5H-pyrazolo[3 4-d]pyrimidin-4-one] | 24.6 nM
16 | Cn1ncc2c(=O)[nH]c(N3CCN(C4CCOCC4)CC3)nc21 [Compound I-130, 1-methyl-6-(4-tetrahydropyran-4-ylpiperazin-1-yl)-5H-pyrazolo[3 4-d]pyrimidin-4-one] | 315 nM
17 | COCCOc1cc(F)c(N2CCN(c3nc4[nH]ncc4c(=O)[nH]3)CC2)c(F)c1 [Compound I-77, 6-[4-[2 6-difluoro-4-(2-methoxyethoxy)phenyl]piperazin-1-yl]-1 5-dihydropyrazolo[3 4-d]pyrimidin-4-one] | 11.8 nM

Row | Compound | IC50
18 | Cn1ncc2c(=O)[nH]c(N3CCN(c4c(F)cc(OCC5C[S+]([O-])C5)cc4F)CC3)nc21 (stereo not drawn) [Compound I-72, 6-[4-[2 6-difluoro-4-[(1-oxothietan-3-yl)methoxy]phenyl]piperazin-1-yl]-1-methyl-5H-pyrazolo[3 4-d]pyrimidin-4-one] | 8.6 nM
19 | Cn1ncc2c(=O)[nH]c(N3CCC(c4ccccc4)CC3)nc21 [Compound I-101, 1-methyl-6-(4-phenyl-1-piperidyl)-5H-pyrazolo[3 4-d]pyrimidin-4-one] | 46.2 nM
20 | Cn1ncc2c(=O)[nH]c(N3CCN([C@H]4CC[C@@H](O)CC4)CC3)nc21 [Compound I-124, 6-[4-(4-hydroxycyclohexyl)piperazin-1-yl]-1-methyl-5H-pyrazolo[3 4-d]pyrimidin-4-one] | 171 nM
21 | Cn1ncc2c(=O)[nH]c(N3CCN(c4c(F)cc(OC(CO)CCl)cc4F)CC3)nc21 (stereo not drawn) [Compound I-64, 6-[4-[4-[1-(chloromethyl)-2-hydroxy-ethoxy]-2 6-difluoro-phenyl]piperazin-1-yl]-1-methyl-5H-pyrazolo[3 4-d]pyrimidin-4-one] | 6.4 nM
22 | Cn1ncc2c(=O)[nH]c(N3CCC(S(C)(=O)=O)CC3)nc21 [Compound I-141, 1-methyl-6-(4-methylsulfonyl-1-piperidyl)-5H-pyrazolo[3 4-d]pyrimidin-4-one] | 652 nM
23 | Cn1ncc2c(=O)[nH]c(N3CCC(C)(c4ccn(CC(C)(C)O)n4)CC3)nc21 [Compound I-127, 6-[4-[1-(2-hydroxy-2-methyl-propyl)pyrazol-3-yl)-4-methyl-1-piperidyl]-1-methyl-5H-pyrazolo[3 4-d]pyrimidin-4-one] | 223 nM
24 | Cn1ncc2c(=O)[nH]c(N3CCN(c4c(F)cc(OCCN5CCOCC5)cc4F)CC3)nc21 [Compound I-74, 6-[4-[2 6-difluoro-4-(2-morpholinoethoxy)phenyl]piperazin-1-yl]-1-methyl-5H-pyrazolo[3 4-d]pyrimidin-4-one] | 8.9 nM
25 | COCCOc1cc(F)c(N2CCN(c3nc4c(cnn4CC(C)(C)O)c(=O)[nH]3)CC2)c(F)c1 [Compound I-143, 6-[4-[2 6-difluoro-4-(2-methoxyethoxy)phenyl]piperazin-1-yl]-1-(2-hydroxy-2-methyl-propyl)-5H-pyrazolo[3 4-d]pyrimidin-4-one] | 795 nM
26 | Cn1cncc1C1CCN(c2nc3c(cnn3C)c(=O)[nH]2)CC1 [Compound I-100, 1-methyl-6-[4-(3-methylimidazol-4-yl)-1-piperidyl]-5H-pyrazolo[3 4-d]pyrimidin-4-one] | 43.8 nM
27 | Cn1ncc2c(=O)[nH]c(N3CCN(c4c(F)cc(CN5CCOCC5)cc4F)CC3)nc21 [Compound I-67, 6-[4-[2 6-difluoro-4-(morpholinomethyl)phenyl]piperazin-1-yl]-1-methyl-5H-pyrazolo[3 4-d]pyrimidin-4-one] | 6.9 nM
28 | COCCOc1cc(F)c(N2CCN(c3nc4c(cnn4CC(C)O)c(=O)[nH]3)CC2)c(F)c1 (stereo not drawn) [Compound I-126, 6-[4-[2 6-difluoro-4-(2-methoxyethoxy)phenyl]piperazin-1-yl]-1-(2-hydroxypropyl)-5H-pyrazolo[3 4-d]pyrimidin-4-one] | 220 nM
29 | Cn1ncc2c(=O)[nH]c(N3CCN(S(C)(=O)=O)CC3)nc21 [Compound I-142, 1-methyl-6-(4-methylsulfonylpiperazin-1-yl)-5H-pyrazolo[3 4-d]pyrimidin-4-one] | 740 nM
30 | COCCOc1cc(F)c(N2CCN(c3nc4c(cnn4CC(O)CO)c(=O)[nH]3)CC2)c(F)c1 (stereo not drawn) [Compound I-113, 6-[4-[2 6-difluoro-4-(2-methoxyethoxy)phenyl]piperazin-1-yl]-1-(2 3-dihydroxypropyl)-5H-pyrazolo[3 4-d]pyrimidin-4-one] | 90 nM
31 | Cc1cc(CN2CCN(c3nc4c(cnn4C)c(=O)[nH]3)CC2)no1 [Compound I-140, 1-methyl-6-[4-[(5-methylisoxazol-3-yl)methyl]piperazin-1-yl]-5H-pyrazolo[3 4-d]pyrimidin-4-one] | 566 nM
32 | O=c1[nH]c(N2CCN(c3c(F)cc(F)cc3F)CC2)nc2[nH]ncc12 [Compound I-104, 6-[4-(2 4 6-trifluorophenyl)piperazin-1-yl]-1 5-dihydropyrazolo[3 4-d]pyrimidin-4-one] | 55 nM
33 | Cn1ncc2c(=O)[nH]c(N3CCC(c4[nH]ncc4S(C)(=O)=O)CC3)nc21 [Compound I-81, 1-methyl-6-[4-(4-methylsulfonyl-1H-pyrazol-5-yl)-1-piperidyl]-5H-pyrazolo[3 4-d]pyrimidin-4-one] | 14.3 nM
